Test results reported in patent US11504382B2, “Tricyclic inhibitors of Hepatitis B virus” (Antios Therapeutics, Inc., priority 2018, dated 2022).
Read-outs that look alike come from different tables or passages of the source.

Tested on: HBV
Assay: HBV inhibition assay in HepAD38 cells (extracellular HBV DNA by direct qPCR)
Format: cell-based, Hepatitis B virus
Conditions: 96 hours; for EC50: 8-point dose-response curve, read-out: HBV inh EC50
[1] = Hepatitis B virus, relative to non-treated reference, read-out: Anti HBV Activity (conc μM)

CCOC(=O)N1C[C@H]2C[S+]([O-])c3c(cn(C)c3C(=O)Nc3ccc(F)c(C)c3)S(=O)(=O)N[C@H]2C1 (stereo partly drawn) [Example E122, Ethyl (3aR,10aR)-8-((4-fluoro-3-methylphenyl)carbamoyl)-7-methyl-3a,4,10,10a-tetrahydro-1H,7H-dipyrrolo[3,4-c:3′,4′-g][1,6,2]dithiazocine-2(3H)-carboxylate 5,5,9-trioxide]
EC50 (Hepatitis B virus): < 1000 nM

Cn1cc2c(c1C(=O)Nc1ccc(F)c(F)c1)OC[C@@]1(O)CCC[C@H]1NS2(=O)=O (racemic) [Example E30, cis-N-(3,4-difluorophenyl)-8a-hydroxy-2-methyl-5a,6,7,8,8a,9-hexahydro-2H,5H-cyclopenta[f]pyrrolo[3,4-b][1,4,5]oxathiazocine-1-carboxamide 4,4-dioxide]
inhibition at 0.5 µM (Hepatitis B virus, 0.5 μM, relative to non-treated reference, read-out: Anti HBV Activity (conc μM)): < 50%

Cc1cc(NC(=O)c2c3c(cn2C)S(=O)(=O)NC2CN(C(=O)C45CC(CO4)C5)CCC2CO3)ccc1F (racemic) [Example E138, Cis-7-(2-oxabicyclo[2.1.1]hexane-1-carbonyl)-N-(4-fluoro-3-methylphenyl)-2-methyl-5,5a,6,7,8,9,9a,10-octahydro-2H-pyrido[3,4-f]pyrrolo[3,4-b][1,4,5]oxathiazocine-1-carboxamide 4,4-dioxide]
EC50 (Hepatitis B virus): < 1000 nM

Cc1cc(NC(=O)c2c3c(cn2C)S(=O)(=O)NC2CN(C(=O)c4nonc4N)CC2CO3)ccc1F (stereo not drawn) [Example E61, cis-2-(4-amino-1,2,5-oxadiazole-3-carbonyl)-N-(4-fluoro-3-methylphenyl)-7-methyl-2,3,3a,4,10,10a-hexahydro-1H,7H-dipyrrolo[3,4-b:3′,4′-f][1,4,5]oxathiazocine-8-carboxamide 5,5-dioxide]
EC50 (Hepatitis B virus): < 1000 nM

Cn1cc2c(c1C(=O)Nc1ccc(F)c(F)c1)OCC1CCN1S2(=O)=O (stereo not shown) [Example E3, N-(3,4-difluorophenyl)-2-methyl-6,7,7a,8-tetrahydro-2H-azeto[1,2-e]pyrrolo[3,4-b][1,4,5]oxathiazepine-1-carboxamide 4,4-dioxide]
inhibition at 1 µM (Hepatitis B virus, 1 μM, relative to non-treated reference, read-out: Anti HBV Activity (conc μM)): > 50%
EC50 (Hepatitis B virus): < 1000 nM

CCOC(=O)N1CC2NS(=O)(=O)c3cn(C)c(C(=O)Nc4ccc(F)c(C)c4)c3OCC2(C)C1 (single isomer, unassigned) [Example E94, Ethyl 8-((4-fluoro-3-methylphenyl)carbamoyl)-7,10a-dimethyl-3a,4,10,10a-tetrahydro-1H,7H-dipyrrolo[3,4-b:3′,4′-f][1,4,5]oxathiazocine-2(3H)-carboxylate 5,5-dioxide(Chiral 3aS,10aS or 3aR,10aR - Stereochemistryunknown)]
EC50: < 1000 nM

CCOC(=O)N1CC2CNc3c(cn(C)c3C(=O)Nc3ccc(F)c(C)c3)S(=O)(=O)NC2C1 (stereo not drawn) [Example E157, Cis Ethyl 8-((4-fluoro-3-methylphenyl)carbamoyl)-7-methyl-3a,4,7,9,10,10a-hexahydro-1H-dipyrrolo[3,4-c:3′,4′-g][1,2,6]thiadiazocine-2(3H)-carboxylate 5,5-dioxide]
EC50 (Hepatitis B virus): > 1000 nM

Cn1cc2c(c1C(=O)Nc1cc(F)c(F)c(F)c1)OC[C@H]1CN(C(=O)[C@@H](N)CO)C[C@H]1NS2(=O)=O (mixture of isomers) [Example E68, cis-2-(L-seryl)-7-methyl-N-(3,4,5-trifluorophenyl)-2,3,3a,4,10,10a-hexahydro-1H,7H-dipyrrolo[3,4-b:3′,4′-f][1,4,5]oxathiazocine-8-carboxamide 5,5-dioxide]
inhibition at 0.1 µM [1]: < 50%

Cn1cc2c(c1C(=O)Nc1cc(F)c(F)c(F)c1)OCC1CN(c3ccccn3)CC1NS2(=O)=O (stereo not drawn) [Example E81, cis-7-methyl-2-(pyridin-2-yl)-N-(3,4,5-trifluorophenyl)-2,3,3a,4,10,10a-hexahydro-1H,7H-dipyrrolo[3,4-b:3′,4′-f][1,4,5]oxathiazocine-8-carboxamide 5,5-dioxide]
inhibition at 0.1 µM [1]: > 50%

Cn1cc2c(c1C(=O)Nc1cc(F)c(F)c(F)c1)OCC1CN(c3ncc(F)cn3)CC1NS2(=O)=O (stereo not drawn) [Example E75, cis-2-(5-fluoropyrimidin-2-yl)-7-methyl-N-(3,4,5-trifluorophenyl)-2,3,3a,4,10,10a-hexahydro-1H,7H-dipyrrolo[3,4-b:3′,4′-f][1,4,5]oxathiazocine-8-carboxamide 5,5-dioxide]
inhibition at 0.05 µM (Hepatitis B virus, 0.05 μM, relative to non-treated reference, read-out: Anti HBV Activity (conc μM)): > 50%
EC50 (Hepatitis B virus): < 1000 nM

Cc1cc(NC(=O)c2c3c(cn2C)S(=O)(=O)NC2CN(C(=O)C4(C)CCCO4)CC2(C)CO3)ccc1F (stereo not drawn) [Example E88, cis-N-(4-fluoro-3-methylphenyl)-7,10a-dimethyl-2-(2-methyltetrahydrofuran-2-carbonyl)-2,3,3a,4,10,10a-hexahydro-1H,7H-dipyrrolo[3,4-b:3′,4′-f][1,4,5]oxathiazocine-8-carboxamide 5,5-dioxide]
EC50 (Hepatitis B virus): < 1000 nM

Cc1nc(C(=O)N2C[C@H]3COc4c(cn(C)c4C(=O)Nc4ccc(F)c(C)c4)S(=O)(=O)N[C@H]3C2)c(C)o1 [Example E114, (3aR,10aR)-2-(2,5-dimethyloxazole-4-carbonyl)-N-(4-fluoro-3-methylphenyl)-7-methyl-2,3,3a,4,10,10a-hexahydro-1H,7H-dipyrrolo[3,4-b:3′,4′-f][1,4,5]oxathiazocine-8-carboxamide 5,5-dioxide]
EC50 (Hepatitis B virus): < 1000 nM

Cn1cc2c(c1C(=O)Nc1cc(F)c(F)c(F)c1)OC[C@@H]1CNC[C@@H]1NS2(=O)=O [Example E36, 7-methyl-N-(3,4,5-trifluorophenyl)-2,3,3a,4,10,10a-hexahydro-1H,7H-dipyrrolo[3,4-b:3′,4′-f][1,4,5]oxathiazocine-8-carboxamide 5,5-dioxide (3aR,10aR)]
inhibition at 0.1 µM [1]: < 50%

Cn1cc2c(c1C(=O)Nc1cc(F)c(F)c(F)c1)OCC1CN(C(=O)c3c[nH]c(=O)cn3)CC1NS2(=O)=O (stereo not drawn) [Example E56, cis-7-methyl-2-(5-oxo-4,5-dihydropyrazine-2-carbonyl)-N-(3,4,5-trifluorophenyl)-2,3,3a,4,10,10a-hexahydro-1H,7H-dipyrrolo[3,4-b:3′,4′-f][1,4,5]oxathiazocine-8-carboxamide 5,5-dioxide]
inhibition at 0.1 µM [1]: < 50%

Cn1cc2c(c1C(=O)Nc1ccc(F)c(F)c1)OC[C@@H]1CCC[C@H]1NS2(=O)=O [Example E8, (5aR,8aR)—N-(3,4-difluorophenyl)-2-methyl-5a,6,7,8,8a,9-hexahydro-2H,5H-cyclopenta[f]pyrrolo[3,4-b][1,4,5]oxathiazocine-1-carboxamide 4,4-dioxide]
EC50 (Hepatitis B virus): < 1000 nM

Cc1nnc(C(=O)N2C[C@H]3COc4c(cn(C)c4C(=O)Nc4cc(F)c(F)c(F)c4)S(=O)(=O)N[C@H]3C2)o1 [Example E97, (3aR,10aR)-7-methyl-2-(5-methyl-1,3,4-oxadiazole-2-carbonyl)-N-(3,4,5-trifluorophenyl)-2,3,3a,4,10,10a-hexahydro-1H,7H-dipyrrolo[3,4-b:3′,4′-f][1,4,5]oxathiazocine-8-carboxamide 5,5-dioxide]
EC50 (Hepatitis B virus): < 1000 nM

CCOC(=O)N1CC2COc3c(cn(C)c3C(=O)Nc3ccc(F)c(F)c3)S(=O)(=O)NC2C1 (single isomer, unassigned) [Example E37, Ethyl 8-((3,4-difluorophenyl)carbamoyl)-7-methyl-3a,4,10,10a-tetrahydro-1H,7H-dipyrrolo[3,4-b:3′,4′-f][1,4,5]oxathiazocine-2(3H)-carboxylate 5,5-dioxide (Chiral 3aS,10aS or 3aR,10aR - Stereochemistry unknown)]
Anti HBV Activity (conc μM) (0.05 μM, relative to non-treated reference): A (0.05) (HBV inhibition greater than 50% at the concentration indicated in the table)

CCOC(=O)N1CC2COc3c(cn(C)c3C(=O)Nc3ccc(F)c(C#N)c3)S(=O)(=O)NC2C1 (racemic) [Example E17, Cis-Ethyl 8-((3-cyano-4-fluorophenyl)carbamoyl)-7-methyl-3a,4,10,10a-tetrahydro-1H,7H-dipyrrolo[3,4-b:3′,4′-f][1,4,5]oxathiazocine-2(3H)-carboxylate 5,5-dioxide]
inhibition at 0.1 µM [1]: > 50%
EC50 (Hepatitis B virus): < 1000 nM

Cc1nnc(C(=O)N2CC3NS(=O)(=O)c4cn(C)c(C(=O)Nc5ccc(F)c(C)c5)c4OCC3(C)C2)o1 (single isomer, unassigned) [Example E95, N-(4-fluoro-3-methylphenyl)-7,10a-dimethyl-2-(5-methyl-1,3,4-oxadiazole-2-carbonyl)-2,3,3a,4,10,10a-hexahydro-1H,7H-dipyrrolo[3,4-b:3′,4′-f][1,4,5]oxathiazocine-8-carboxamide 5,5-dioxide (Chiral 3aS,10aS or 3aR,10aR - Stereochemistry unknown)]
EC50: < 1000 nM

CCOC(=O)N1CC2COc3c(cn(C)c3C(=O)Nc3ccc(F)c(C)c3)S(=O)(=O)NC2C1 (racemic) [Example E14, Cis-Ethyl 8-((4-fluoro-3-methylphenyl)carbamoyl)-7-methyl-3a,4,10,10a-tetrahydro-1H,7H-dipyrrolo[3,4-b:3′,4′-f][1,4,5]oxathiazocine-2(3H)-carboxylate 5,5-dioxide]
inhibition at 0.1 µM [1]: > 50%
EC50 (Hepatitis B virus): < 1000 nM

Cn1cc2c(c1C(=O)Nc1cc(F)c(F)c(F)c1)OCC1CN(S(C)(=O)=O)CC1NS2(=O)=O (racemic) [Example E19, cis-7-methyl-2-(methylsulfonyl)-N-(3,4,5-trifluorophenyl)-2,3,3a,4,10,10a-hexahydro-1H,7H-dipyrrolo[3,4-b:3′,4′-f][1,4,5]oxathiazocine-8-carboxamide 5,5-dioxide]
inhibition at 0.1 µM [1]: > 50%
EC50 (Hepatitis B virus): < 1000 nM

CN1CC2COc3c(cn(C)c3C(=O)Nc3cc(F)c(F)c(F)c3)S(=O)(=O)NC2C1 (racemic) [Example E12, cis-2,7-dimethyl-N-(3,4,5-trifluorophenyl)-2,3,3a,4,10,10a-hexahydro-1H,7H-dipyrrolo[3,4-b:3′,4′-f][1,4,5]oxathiazocine-8-carboxamide 5,5-dioxide]
inhibition at 0.1 µM [1]: > 50%
EC50 (Hepatitis B virus): < 1000 nM
